According to US20260125346A1, “Isoquinolinone Derivatives and 4H-Quinolizinone Derivatives and Pharmaceutical Compositions Thereof for the Treatment of Disease” (BeOne Medicines I GmbH, priority 2023, published 2026):

Experiments:
[1] = molecular target: PI3Kα (p110[H1047R]/p85) kinase (Homo sapiens, UniProt P42336, H1047R); assay: PI3Kα (p110[H1047R]/p85) kinase ADP-Glo Assay; format: biochemical; details: 25 uM ATP; for selectivity: WT/H1047R: ADP-Glo Assay IC50 ratio
Method in brief: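 PI3Kα H1047R/p85 pre-incubated 30 min at room temperature with PI(4,5)P2:PS substrate ([…]) and compound ([…]) in HEPES pH 7.5 buffer with MgCl2; ATP ([…]) then added for 120 min. ADP quantified by ADP-Glo luminescence; IC50 from four-parameter logistic fit.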

[2] = tested on: PI3Kα H1047R mutated cell line T-47D cells; assay: Cell Proliferation Assay (CellTiter-Glo), T-47D; format: cell-based; details: for IC50: Homo sapiens, T47D, 72 h, T-47D, 3 days treatment; for Selectivity: SK-BR-3/T-47D (cell proliferation): cell proliferation IC50 ratio
Method in brief: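 T-47D cells seeded overnight at 3×10^3/well, then exposed 3 days to 9-point 1:3 dilutions, final […] to 1 nM in 0.1% DMSO. CellTiter-Glo luminescence; relative IC50 from percent inhibition versus medium-only and 0.1% DMSO controls, 4-parameter logistic fit.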

PI3Kα (p110[H1047R]/p85) kinase, sequence (P42336 whole entry H1047R): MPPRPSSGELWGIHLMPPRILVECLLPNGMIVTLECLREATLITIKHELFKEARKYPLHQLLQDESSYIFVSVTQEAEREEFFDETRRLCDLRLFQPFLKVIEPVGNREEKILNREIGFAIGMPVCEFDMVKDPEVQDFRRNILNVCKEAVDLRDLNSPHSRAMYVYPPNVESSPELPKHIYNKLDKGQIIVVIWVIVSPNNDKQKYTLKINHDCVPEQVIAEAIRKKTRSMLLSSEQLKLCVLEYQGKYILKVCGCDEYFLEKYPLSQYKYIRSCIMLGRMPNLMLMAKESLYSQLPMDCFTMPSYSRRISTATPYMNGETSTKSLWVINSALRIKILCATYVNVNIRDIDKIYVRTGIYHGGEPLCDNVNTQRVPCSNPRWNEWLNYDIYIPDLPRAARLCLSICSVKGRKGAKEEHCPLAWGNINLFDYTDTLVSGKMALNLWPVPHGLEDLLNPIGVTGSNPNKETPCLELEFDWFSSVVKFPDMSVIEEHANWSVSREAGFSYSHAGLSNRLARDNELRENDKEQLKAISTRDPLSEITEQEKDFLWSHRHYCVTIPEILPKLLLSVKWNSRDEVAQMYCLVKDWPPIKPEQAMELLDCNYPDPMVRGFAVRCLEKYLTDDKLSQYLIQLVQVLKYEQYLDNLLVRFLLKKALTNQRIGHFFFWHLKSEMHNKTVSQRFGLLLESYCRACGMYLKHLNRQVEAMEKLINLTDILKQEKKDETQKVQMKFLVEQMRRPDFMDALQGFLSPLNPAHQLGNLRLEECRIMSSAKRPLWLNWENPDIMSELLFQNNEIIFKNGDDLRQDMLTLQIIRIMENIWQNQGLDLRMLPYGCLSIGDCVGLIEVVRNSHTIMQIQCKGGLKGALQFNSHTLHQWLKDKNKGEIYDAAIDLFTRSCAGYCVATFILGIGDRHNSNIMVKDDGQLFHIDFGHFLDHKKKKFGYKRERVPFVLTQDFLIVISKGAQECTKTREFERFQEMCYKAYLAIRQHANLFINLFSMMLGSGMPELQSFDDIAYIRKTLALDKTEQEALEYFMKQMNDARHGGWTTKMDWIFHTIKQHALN
PI3Kα (p110[H1047R]/p85) kinase, sequence (P27986 whole entry partner): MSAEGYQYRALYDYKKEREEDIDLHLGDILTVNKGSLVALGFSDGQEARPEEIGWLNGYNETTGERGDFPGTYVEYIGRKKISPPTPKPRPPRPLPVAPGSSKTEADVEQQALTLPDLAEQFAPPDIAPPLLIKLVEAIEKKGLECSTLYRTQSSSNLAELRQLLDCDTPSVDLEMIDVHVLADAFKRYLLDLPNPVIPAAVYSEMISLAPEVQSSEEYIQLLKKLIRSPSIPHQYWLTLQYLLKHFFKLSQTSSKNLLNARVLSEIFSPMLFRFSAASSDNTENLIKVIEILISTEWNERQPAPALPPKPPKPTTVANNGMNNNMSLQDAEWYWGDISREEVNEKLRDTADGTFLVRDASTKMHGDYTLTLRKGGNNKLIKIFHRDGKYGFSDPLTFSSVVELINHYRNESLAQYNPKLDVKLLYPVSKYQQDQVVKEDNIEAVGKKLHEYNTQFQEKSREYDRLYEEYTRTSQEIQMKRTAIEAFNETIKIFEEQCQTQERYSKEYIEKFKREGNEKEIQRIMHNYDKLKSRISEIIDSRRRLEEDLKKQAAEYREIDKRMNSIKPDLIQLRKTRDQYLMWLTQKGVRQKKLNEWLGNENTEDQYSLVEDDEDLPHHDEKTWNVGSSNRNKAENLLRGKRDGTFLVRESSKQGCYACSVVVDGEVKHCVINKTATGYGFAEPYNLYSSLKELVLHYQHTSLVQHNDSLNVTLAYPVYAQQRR

Row | SMILES | IC50 [1] [nM] | selectivity: WT/H1047R [1] | IC50 [2] [nM] | Selectivity: SK-BR-3/T-47D (cell proliferation) [2]
1 | Cc1cc(C(C)Nc2ccccc2C(=O)O)c2cc(-c3cnc(C(C)(C)O)nc3)n(C)c(=O)c2c1 (centres unmarked) [Example 66, 2-((1-(3-(2-(2-hydroxypropan-2-yl)pyrimidin-5-yl)-2,7-dimethyl-1-oxo-1,2-dihydroisoquinolin-5-yl)ethyl)amino)benzoic acid] | 1110 | 19.3 | 908 | >11
2 | Cc1cc([C@@H](C)Nc2ccccc2C(=O)O)c2cc(-c3cnc(C(C)(C)O)nc3)n(C)c(=O)c2c1 [Example 67, (R)-2-((1-(3-(2-(2-hydroxypropan-2-yl)pyrimidin-5-yl)-2,7-dimethyl-1-oxo-1,2-dihydroisoquinolin-5-yl)ethyl)amino)benzoic acid] | 1210 | 11.2 | 279 | >36
3 | Cc1cc(C(C)Nc2ccccc2C(=O)O)c2cc(-c3ccc(F)cc3)n(C3CCOC3)c(=O)c2c1 (centres unmarked) [Example 69, 2-((1-(3-(4-fluorophenyl)-7-methyl-1-oxo-2-(tetrahydrofuran-3-yl)-1,2-dihydroisoquinolin-5-yl)ethyl)amino)benzoic acid] | 416 | 45.3 | 1690 | >5.9
4 | Cc1cc(C(C)Nc2ccccc2C(=O)O)c2cc(-c3ccc(F)cc3)n(-c3nccs3)c(=O)c2c1 (centres unmarked) [Example 71, 2-((1-(3-(4-fluorophenyl)-7-methyl-1-oxo-2-(thiazol-2-yl)-1,2-dihydroisoquinolin-5-yl)ethyl)amino)benzoic acid] | 312 | 45.7 | 267 | >34
5 | Cc1cc(C(C)Nc2ccccc2C(=O)O)c2cc(-c3ccc(N4CCC(C)(O)CC4)nc3)n(C)c(=O)c2c1 (centres unmarked) [Example 72, 2-((1-(3-(6-(4-hydroxy-4-methylpiperidin-1-yl)pyridin-3-yl)-2,7-dimethyl-1-oxo-1,2-dihydroisoquinolin-5-yl)ethyl)amino)benzoic acid] | 1070 | 19.2 | 175 | >57
6 | Cc1cc(C(C)Nc2ccccc2C(=O)O)c2cc(-c3ccc(C4(O)CCOCC4)cc3)n(C)c(=O)c2c1 (centres unmarked) [Example 73, 2-((1-(3-(4-(4-hydroxytetrahydro-2H-pyran-4-yl)phenyl)-2,7-dimethyl-1-oxo-1,2-dihydroisoquinolin-5-yl)ethyl)amino)benzoic acid] | 1030 | 25.4 | 171 | >59
7 | COC1(c2ccc(-c3cc4c(C(C)Nc5ccccc5C(=O)O)cc(C)cc4c(=O)n3C)cc2)CCOCC1 (centres unmarked) [Example 74, 2-((1-(3-(4-(4-methoxytetrahydro-2H-pyran-4-yl)phenyl)-2,7-dimethyl-1-oxo-1,2-dihydroisoquinolin-5-yl)ethyl)amino)benzoic acid] | 729 | 18.0 | 86.9 | >115
8 | Cc1cc(C(C)Nc2ccccc2C(=O)O)c2cc(-c3ccc(CN4CCOCC4)nc3)n(C)c(=O)c2c1 (centres unmarked) [Example 78, 2-((1-(2,7-dimethyl-3-(6-(morpholinomethyl)pyridin-3-yl)-1-oxo-1,2-dihydroisoquinolin-5-yl)ethyl)amino)benzoic acid] | 2210 | 29.7 | 329 | >30
9 | Cc1cc(C(C)Nc2ccccc2C(=O)O)c2cc(C#Cc3cnn(C)c3)n(C)c(=O)c2c1 (centres unmarked) [Example 80, 2-((1-(2,7-dimethyl-3-((1-methyl-1H-pyrazol-4-yl)ethynyl)-1-oxo-1,2-dihydroisoquinolin-5-yl)ethyl)amino)benzoic acid] | 304 | 10.8 | 254 | >39.4
10 | CCn1c(-c2ccc(F)cc2)cc2c(C(C)Nc3ccc(Cl)nc3C(=O)O)cc(C)cc2c1=O (centres unmarked) [Example 81, 6-chloro-3-((1-(2-ethyl-3-(4-fluorophenyl)-7-methyl-1-oxo-1,2-dihydroisoquinolin-5-yl)ethyl)amino)picolinic acid] | 215 | 17.6 | 770 | >13
11 | Cc1cc(C(C)Nc2ccccc2C(=O)O)c2cc(-c3cnn(CC45CC6C[C@H](C4)C[C@H](C6)C5)c3C)n(C)c(=O)c2c1 (stereo partly drawn) [Example 87, 2-((1-(3-(1-(((3S,5S)-adamantan-1-yl)methyl)-5-methyl-1H-pyrazol-4-yl)-2,7-dimethyl-1-oxo-1,2-dihydroisoquinolin-5-yl)ethyl)amino)benzoic acid] | 1500 | 23.5 | 890 | >11.2
12 | Cc1cc(C(C)Nc2ccccc2C(=O)O)c2cc(C#Cc3ccn(C)n3)n(C)c(=O)c2c1 (centres unmarked) [Example 88, 2-((1-(2,7-dimethyl-3-((1-methyl-1H-pyrazol-3-yl)ethynyl)-1-oxo-1,2-dihydroisoquinolin-5-yl)ethyl)amino)benzoic acid] | 152 | 11.5 | 695 | >14
13 | Cc1cc(C(C)Nc2ccccc2C(=O)O)c2cc(C#CC3(O)CCCC3)n(C)c(=O)c2c1 (centres unmarked) [Example 89, 2-((1-(3-((1-hydroxycyclopentyl)ethynyl)-2,7-dimethyl-1-oxo-1,2-dihydroisoquinolin-5-yl)ethyl)amino)benzoic acid] | 158 | 43.3 | 938 | >11
14 | Cc1cc(C(C)Nc2ccccc2C(=O)O)c2cc(C#Cc3cnn(-c4ccccc4)c3)n(C)c(=O)c2c1 (centres unmarked) [Example 94, 2-((1-(2,7-dimethyl-1-oxo-3-((1-phenyl-1H-pyrazol-4-yl)ethynyl)-1,2-dihydroisoquinolin-5-yl)ethyl)amino)benzoic acid] | 387 | >258 | > 10000 | –
15 | Cc1cc(C(C)Nc2ccccc2C(=O)O)c2cc(-c3ccc(F)cc3)n(C3COC3)c(=O)c2c1 (centres unmarked) [Example 95, 2-((1-(3-(4-fluorophenyl)-7-methyl-2-(oxetan-3-yl)-1-oxo-1,2-dihydroisoquinolin-5-yl)ethyl)amino)benzoic acid] | 91 | 47.6 | 284 | >35

The next lines start with results.

Row | IC50 [1] [nM] | selectivity: WT/H1047R [1] | IC50 [2] [nM] | SMILES | Selectivity: SK-BR-3/T-47D (cell proliferation) [2]
16 | 872 | 24.2 | 245 | Cc1cc(C(C)Nc2ccccc2C(=O)O)c2cc(-c3ccc4c(c3)CN(C)C4=O)n(C)c(=O)c2c1 (centres unmarked) [Example 70, 2-((1-(2,7-dimethyl-3-(2-methyl-1-oxoisoindolin-5-yl)-1-oxo-1,2-dihydroisoquinolin-5-yl)ethyl)amino)benzoic acid] | >41
17 | 974 | 32.3 | 270 | Cc1cc(C(C)Nc2ccccc2C(=O)O)c2cc(-c3ccc4c(c3)C(=O)N(C)C4)n(C)c(=O)c2c1 (centres unmarked) [Example 75, 2-((1-(2,7-dimethyl-3-(2-methyl-3-oxoisoindolin-5-yl)-1-oxo-1,2-dihydroisoquinolin-5-yl)ethyl)amino)benzoic acid] | >37
18 | 516 | 22.8 | 674 | Cc1cc(C(C)Nc2ccccc2C(=O)O)c2cc(C3=CCN(c4ccccc4)C3)n(C)c(=O)c2c1 (centres unmarked) [Example 76, 2-((1-(2,7-dimethyl-1-oxo-3-(1-phenyl-2,5-dihydro-1H-pyrrol-3-yl)-1,2-dihydroisoquinolin-5-yl)ethyl)amino)benzoic acid] | >14.8
19 | 325 | 21.4 | 1400 | Cc1cc(C(C)Nc2ccccc2C(=O)O)c2cc(-c3ccn(-c4ccccc4)c3)n(C)c(=O)c2c1 (centres unmarked) [Example 77, 2-((1-(2,7-dimethyl-1-oxo-3-(1-phenyl-1H-pyrrol-3-yl)-1,2-dihydroisoquinolin-5-yl)ethyl)amino)benzoic acid] | >7.1
20 | 2420 | 24.4 | > 10000 | Cc1cc(C(C)Nc2ccccc2C(=O)O)c2cc(-c3ccc(P(C)(C)=O)cc3)n(C)c(=O)c2c1 (centres unmarked) [Example 79, 2-((1-(3-(4-(dimethylphosphoryl)phenyl)-2,7-dimethyl-1-oxo-1,2-dihydroisoquinolin-5-yl)ethyl)amino)benzoic acid] | –
21 | 549 | 6.0 | > 10000 | Cc1cc(C(C)Nc2ccccc2S(C)(=O)=O)c2cc(-c3ccccc3)n(C)c(=O)c2c1 (centres unmarked) [Example 82, 2,7-dimethyl-5-(1-((2-(methylsulfonyl)phenyl)amino)ethyl)-3-phenylisoquinolin-1(2H)-one] | –
22 | 242 | 60.4 | 465 | Cc1cc(C(C)Nc2ccccc2C(=O)O)c2cc(-c3ccc(N4CCCC4)cc3)n(C)c(=O)c2c1 (centres unmarked) [Example 84, 2-((1-(2,7-dimethyl-1-oxo-3-(4-(pyrrolidin-1-yl)phenyl)-1,2-dihydroisoquinolin-5-yl)ethyl)amino)benzoic acid] | >22
23 | 575 | 26.3 | 375 | Cc1cc(C(C)Nc2ccccc2C(=O)O)c2cc(-c3ccc(C(F)(F)F)nc3)n(C)c(=O)c2c1 (centres unmarked) [Example 86, 2-((1-(2,7-dimethyl-1-oxo-3-(6-(trifluoromethyl)pyridin-3-yl)-1,2-dihydroisoquinolin-5-yl)ethyl)amino)benzoic acid] | >26.6
